# Measured values published in US11154529B2, “Phosphaplatin liquid formulations” (Phosplatin Therapeutics Inc., priority 2016, dated 2021).
# Assay: Ready-to-use formulation stability at 2-8° C., 5 mg/mL (R,R)-pyrodach-2 in 10 mM Bicarbonate Buffer at pH 8.6, 10 mL vials
# Format: physicochemical
smiles,measurement,setting,value
"O=P1(O)OP(=O)(O)[O][Pt]2([NH][C@@H]3CCCC[C@H]3[NH]2)[O]1 (stereo partly drawn) [(R,R)-pyrodach-2, (R,R)-trans-1,2-cyclohexanediamine-(dihydrogenpyrophosphato)platinum(II)]",Potency (Assay),1 month,99.1%
same,Purity (% Area),1 month,97.85%
same,Unknown Impurities RRT~0.29,1 month,0.14%
same,Unknown Impurities RRT~0.35,1 month,"ND (ND = Not Detected, or <0.05%)"
same,Unknown Impurities RRT~0.41,1 month,0.05%
same,Unknown Impurities RRT~0.49,1 month,0.55%
same,Unknown Impurities RRT~0.59,1 month,0.08%
same,Unknown Impurities RRT~0.73,1 month,1.14%
same,Unknown Impurities RRT~1.51,1 month,"ND (ND = Not Detected, or <0.05%)"
same,Unknown Impurities RRT~2.82,1 month,"ND (ND = Not Detected, or <0.05%)"
same,Unknown Impurities RRT~3.44,1 month,"ND (ND = Not Detected, or <0.05%)"
same,pH,1 month,8.73
same,Potency (Assay),1 week,101.9%
same,Purity (% Area),1 week,98.02%
same,Unknown Impurities RRT~0.29,1 week,0.10%
same,Unknown Impurities RRT~0.35,1 week,"ND (ND = Not Detected, or <0.05%)"
same,Unknown Impurities RRT~0.41,1 week,"ND (ND = Not Detected, or <0.05%)"
same,Unknown Impurities RRT~0.49,1 week,0.60%
same,Unknown Impurities RRT~0.59,1 week,"ND (ND = Not Detected, or <0.05%)"
same,Unknown Impurities RRT~0.73,1 week,1.11%
same,Unknown Impurities RRT~1.51,1 week,"ND (ND = Not Detected, or <0.05%)"
same,Unknown Impurities RRT~2.82,1 week,"ND (ND = Not Detected, or <0.05%)"
same,Unknown Impurities RRT~3.44,1 week,"ND (ND = Not Detected, or <0.05%)"
same,pH,1 week,8.57
same,Potency (Assay),2 month,102.4%
same,Purity (% Area),2 month,97.58%
same,Unknown Impurities RRT~0.29,2 month,0.21%
same,Unknown Impurities RRT~0.35,2 month,"ND (ND = Not Detected, or <0.05%)"
same,Unknown Impurities RRT~0.41,2 month,0.11%
same,Unknown Impurities RRT~0.49,2 month,0.62%
same,Unknown Impurities RRT~0.59,2 month,0.15%
same,Unknown Impurities RRT~0.73,2 month,1.03%
same,Unknown Impurities RRT~1.51,2 month,"ND (ND = Not Detected, or <0.05%)"
same,Unknown Impurities RRT~2.82,2 month,"ND (ND = Not Detected, or <0.05%)"
same,Unknown Impurities RRT~3.44,2 month,0.06%
same,pH,2 month,8.76
same,Potency (Assay),2 week,100.5%
same,Purity (% Area),2 week,97.99%
same,Unknown Impurities RRT~0.29,2 week,0.12%
same,Unknown Impurities RRT~0.35,2 week,"ND (ND = Not Detected, or <0.05%)"
same,Unknown Impurities RRT~0.41,2 week,"ND (ND = Not Detected, or <0.05%)"
same,Unknown Impurities RRT~0.49,2 week,0.63%
same,Unknown Impurities RRT~0.59,2 week,0.06%
same,Unknown Impurities RRT~0.73,2 week,1.14%
same,Unknown Impurities RRT~1.51,2 week,"ND (ND = Not Detected, or <0.05%)"
same,Unknown Impurities RRT~2.82,2 week,"ND (ND = Not Detected, or <0.05%)"
same,Unknown Impurities RRT~3.44,2 week,"ND (ND = Not Detected, or <0.05%)"
same,pH,2 week,8.65
same,Potency (Assay),3 month,102.3%
same,Purity (% Area),3 month,97.76%
same,Unknown Impurities RRT~0.29,3 month,0.29%
same,Unknown Impurities RRT~0.35,3 month,"ND (ND = Not Detected, or <0.05%)"
same,Unknown Impurities RRT~0.41,3 month,0.13%
same,Unknown Impurities RRT~0.49,3 month,0.53%
same,Unknown Impurities RRT~0.59,3 month,0.15%
same,Unknown Impurities RRT~0.73,3 month,0.89%
same,Unknown Impurities RRT~1.51,3 month,0.06%
same,Unknown Impurities RRT~2.82,3 month,0.05%
same,Unknown Impurities RRT~3.44,3 month,"ND (ND = Not Detected, or <0.05%)"
same,pH,3 month,8.95
same,Potency (Assay),3 week,100.0%
same,Purity (% Area),3 week,97.91%
same,Unknown Impurities RRT~0.29,3 week,0.14%
same,Unknown Impurities RRT~0.35,3 week,"ND (ND = Not Detected, or <0.05%)"
same,Unknown Impurities RRT~0.41,3 week,"ND (ND = Not Detected, or <0.05%)"
same,Unknown Impurities RRT~0.49,3 week,0.56%
same,Unknown Impurities RRT~0.59,3 week,0.07%
same,Unknown Impurities RRT~0.73,3 week,1.11%
same,Unknown Impurities RRT~1.51,3 week,"ND (ND = Not Detected, or <0.05%)"
same,Unknown Impurities RRT~2.82,3 week,"ND (ND = Not Detected, or <0.05%)"
same,Unknown Impurities RRT~3.44,3 week,"ND (ND = Not Detected, or <0.05%)"
same,pH,3 week,8.67
same,Potency (Assay),4 month,103.5%
same,Purity (% Area),4 month,98.07%
same,Unknown Impurities RRT~0.29,4 month,0.15%
same,Unknown Impurities RRT~0.35,4 month,"ND (ND = Not Detected, or <0.05%)"
same,Unknown Impurities RRT~0.41,4 month,0.16%
same,Unknown Impurities RRT~0.49,4 month,0.68%
same,Unknown Impurities RRT~0.59,4 month,0.09%
same,Unknown Impurities RRT~0.73,4 month,0.72%
same,Unknown Impurities RRT~1.51,4 month,0.05%
same,Unknown Impurities RRT~2.82,4 month,0.05%
same,Unknown Impurities RRT~3.44,4 month,"ND (ND = Not Detected, or <0.05%)"
same,pH,4 month,8.83
same,Potency (Assay),6 month,100.4%
same,Purity (% Area),6 month,97.56%
same,Unknown Impurities RRT~0.29,6 month,0.23%
same,Unknown Impurities RRT~0.35,6 month,"ND (ND = Not Detected, or <0.05%)"
same,Unknown Impurities RRT~0.41,6 month,0.23%
same,Unknown Impurities RRT~0.49,6 month,0.65%
same,Unknown Impurities RRT~0.59,6 month,0.21%
same,Unknown Impurities RRT~0.73,6 month,0.90%
same,Unknown Impurities RRT~1.51,6 month,"ND (ND = Not Detected, or <0.05%)"
same,Unknown Impurities RRT~2.82,6 month,"ND (ND = Not Detected, or <0.05%)"
same,Unknown Impurities RRT~3.44,6 month,0.09%
same,pH,6 month,8.84
same,Potency (Assay),9 month,102.2%
same,Purity (% Area),9 month,97.73%
same,Unknown Impurities RRT~0.29,9 month,0.15%
same,Unknown Impurities RRT~0.35,9 month,"ND (ND = Not Detected, or <0.05%)"
same,Unknown Impurities RRT~0.41,9 month,0.33%
same,Unknown Impurities RRT~0.49,9 month,0.58%
same,Unknown Impurities RRT~0.59,9 month,0.24%
same,Unknown Impurities RRT~0.73,9 month,0.43%
same,Unknown Impurities RRT~1.51,9 month,0.05%
same,Unknown Impurities RRT~2.82,9 month,0.13%
same,Unknown Impurities RRT~3.44,9 month,0.16%
same,pH,9 month,9.07
same,Potency (Assay),12 month,100.3%
same,Purity (% Area),12 month,96.64%
same,Unknown Impurities RRT~0.29,12 month,0.13%
same,Unknown Impurities RRT~0.35,12 month,0.05%
same,Unknown Impurities RRT~0.41,12 month,0.47%
same,Unknown Impurities RRT~0.49,12 month,0.64%
same,Unknown Impurities RRT~0.59,12 month,0.27%
same,Unknown Impurities RRT~0.73,12 month,0.98%
same,Unknown Impurities RRT~1.51,12 month,"ND (ND = Not Detected, or <0.05%)"
same,Unknown Impurities RRT~2.82,12 month,0.19%
same,Unknown Impurities RRT~3.44,12 month,0.28%
same,pH,12 month,8.97
same,Potency (Assay),Initial,100.3%
same,Purity (% Area),Initial,98.04%
same,Unknown Impurities RRT~0.29,Initial,0.11%
same,Unknown Impurities RRT~0.35,Initial,"ND (ND = Not Detected, or <0.05%)"
same,Unknown Impurities RRT~0.41,Initial,"ND (ND = Not Detected, or <0.05%)"
same,Unknown Impurities RRT~0.49,Initial,0.62%
same,Unknown Impurities RRT~0.59,Initial,"ND (ND = Not Detected, or <0.05%)"
same,Unknown Impurities RRT~0.73,Initial,1.05%
same,Unknown Impurities RRT~1.51,Initial,"ND (ND = Not Detected, or <0.05%)"
same,Unknown Impurities RRT~2.82,Initial,"ND (ND = Not Detected, or <0.05%)"
same,Unknown Impurities RRT~3.44,Initial,"ND (ND = Not Detected, or <0.05%)"
same,pH,Initial,8.60
